Source: patent US5328834A, “Method for preparing immunoglobulin fragments” (UniSyn Technologies, Inc., priority 1989, dated 1994)
*1 amine or outer side, *2 acyl side, *3 side chain or, on linkers, in order; H or OH if unused. Where a SMILES comes first, the peptide text is derived from it. CO = O=C([*:1])[*:2]

T1: papain (Carica papaya, UniProt P00784)
T1 construct: purchased Sigma Chemical Company (St. Louis, Mo.)
T1 sequence (P00784 134-345): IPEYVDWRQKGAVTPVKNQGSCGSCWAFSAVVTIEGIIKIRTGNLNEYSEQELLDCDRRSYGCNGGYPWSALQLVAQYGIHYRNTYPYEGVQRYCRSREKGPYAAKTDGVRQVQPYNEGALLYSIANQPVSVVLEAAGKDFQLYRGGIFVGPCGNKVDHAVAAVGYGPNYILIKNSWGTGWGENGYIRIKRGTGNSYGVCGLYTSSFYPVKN


Tests used:
papain = biological target: T1, papain; test: Inhibition of papain esterolytic activity by antipain and leupeptin (BAEE substrate, pH stat); assay type: biochemical; conditions: for effect of the presence of IgG substrate on inhibitory activity: 10 mg of human IgG present; for time to inhibit 100% of papain activity: inhibitor 0.4 mg/ml; for Time: time to the stated inhibition
Experimental: (§1) Papain activity was assayed using N-benzoyl-L-arginine ethyl ester in a pH stat and pepsin activity using hemoglobin substrate, according to the procedures given in the Worthington Enzyme Manual.
The ability of antipain and leupeptin to modify papain activity was checked with enzyme, both in the absence and in the presence of immunoglobulin substrate. A 0.5 mg aliquot of active papain was made up in the presence and in the absence of 10 mg of human IgG in 0.025M sodium phosphate buffer containing 10 mM EDTA and 50 mM cysteine (pH 6.2). To each sample, different amounts of either antipain or leupeptin were added and then incubated at 23° C. for 5 minutes. An aliquot of this enzyme was diluted in the same buffer and assayed for papain activity using BAEE as the substrate in the pH stat.

[1] = Papain activity assay using N-benzoyl-L-arginine ethyl ester in a pH stat; assay type: biochemical; conditions: BAEE substrate
Experimental: as §1

human IgG = test: Digestion of IgG to F(ab) by papain; assay type: biochemical
Experimental: Typically, 10 mg of IgG in the papain digestion buffer (0,025M sodium phosphate, 10 mM EDTA, 50 mM cysteine, pH 6.2) was added to either 0.5 ml of activated immobilized papain (0.5 mg equivalent of free papain) or 0.5 mg of activated soluble papain in the digestion buffer. The proteolytic cleavage was carried out for various time intervals at 37° C. At the end of each incubation period, the immobilized papain sample was centrifuged to remove the protease and the supernatant transferred to another tube containing 0.5 ml of pH 8.5 buffer. The gel was washed once with 1 ml of pH 8.5 buffer and supernatants combined. In the case of soluble papain, 0.4 mg of antipain or leupeptin in water was added to inactivate the papain and the mixture diluted with 0.5 ml of pH 8.5 buffer.
The separation of inactivated papain from the rest of mixture was carried by one of two methods. According to one procedure, an excess of anti-papain IgG (3 mg) was added to complex with the inactivated papain and the Fab fragments were separated from the rest of the mixture by passing through a 1 ml protein A cartridge equilibrated with pH 8.5 buffer. This procedure removed both the protease and its antibody in the form of antigen-antibody complexes. The column was eluted with 5 ml of pH 8.5 buffer to collect the F(ab) fragments and the absorbance of the various fractions was read at 280 nm. In an alternative procedure, the reaction mixture was first passed through an immobilized column of antipapain IgG to remove the inactivated papain and then passed through a 1 ml protein A cartridge equilibrated with pH 8.5 buffer. The Fc and the undigested immunoglobulins were eluted from the protein A cartridge with an elution buffer (pH 3.5).
After 30 minutes incubation at 37° C., 0.4 mg of antipain was added to inactivate the enzyme and then 0.5 ml of pH 8.5 buffer added to the mixture. […] The effluent was passed through a protein A column to adsorb the Fc and the undigested IgG. The F(ab) fragments came out unabsorbed from the protein A column. […]

avidin-agarose = test: Binding of biotinylated papain to avidin-agarose column; conditions: 0.5 mg through a 1 ml column, pH 8.5 buffer
Source text: The column was eluted with a pH 8.5 buffer and the absorbance of the eluting fractions were monitored at 280 nm.

[2] = read-out: inhibition of papain activity
[3] = PAPAIN (0.5 mg) + IgG (10 mg), inhibitor 0.4 mg
[4] = PAPAIN (0.5 mg), inhibitor 0.2 mg
[5] = PAPAIN (0.5 mg), inhibitor 0.4 mg

amount of F(ab) obtained relative to the immobilized form of the enzyme (human IgG; first 30 minutes)	% Binding to Avidin-Agarose (avidin-agarose)	Molecule	effect of the presence of IgG substrate on inhibitory activity (papain)	time to inhibit 100% of papain activity (papain)	inhibition at 400 µg/mL (papain; [2])	Time (papain; PAPAIN (0.5 mg) + IgG (10 mg), inhibitor 0.2 mg)	Time (papain; [3])	Time (papain; [4])	Time (papain; [5])	time to achieve 100% inhibition of papain activity (papain; inhibitor 0.05 mg/ml)	inhibition at 50 µg/mL (papain; [2])	Time (papain; PAPAIN (0.5 mg) + IgG (10 mg), inhibitor 0.05 mg)	Time (papain; PAPAIN (0.5 mg) + IgG (10 mg), inhibitor 0.1 mg)	Time (papain; PAPAIN (0.5 mg), inhibitor 0.05 mg)	Time (papain; PAPAIN (0.5 mg), inhibitor 0.1 mg)	Activity (Unit/mg) [1]	% Fab Generated (human IgG; 10 mg IgG, 0.5 mg enzyme, 37° C., 30 minutes)	digestion of the total IgG added to F(ab) (human IgG; human IgG, within the first 30 minutes, 37° C.)
–	–	CC(=O)N[C@@H](CC(C)C)C(=O)N[C@@H](CC(C)C)C(=O)N[C@H](C=O)CCCNC(=N)N [LEUPEPTIN, Leupeptin]	did not affect	≤ 1 min	100%	< 1 min	< 1 min	< 1 min	< 1 min	–	–	–	–	–	–	–	–	–
–	–	CC(C)[C@H](NC(=O)[C@H](CCCNC(=N)N)NC(=O)N[C@@H](Cc1ccccc1)C(=O)O)C(=O)N[C@H](C=O)CCCNC(=N)N [ANTIPAIN, Antipain] ({Phe-CO}-Arg-Val-Arg-aldehyde)	did not affect	≤ 1 min	100%	–	1 min	1 min	1 min	≤ 15 min	100%	15 min	4 min	15 min	4 min	–	–	–
double	0%	Papain: soluble protease from Sigma used to digest IgG to F(ab) (protein, UniProt P00784 134-345, looked up) Papain: IPEYVDWRQKGAVTPVKNQGSCGSCWAFSAVVTIEGIIKIRTGNLNEYSEQELLDCDRRSYGCNGGYPWSALQLVAQYGIHYRNTYPYEGVQRYCRSREKGPYAAKTDGVRQVQPYNEGALLYSIANQPVSVVLEAAGKDFQLYRGGIFVGPCGNKVDHAVAAVGYGPNYILIKNSWGTGWGENGYIRIKRGTGNSYGVCGLYTSSFYPVKN	–	–	–	–	–	–	–	–	–	–	–	–	–	7.8 Unit/mg	75%	75%
